Data on 17 compounds can be found in patent US20250381243A1, “HETEROCYCLES AND USES THEREOF” (Kumquat Biosciences Inc., priority 2022, published 2025).

This experiment relates to A549 cells. Put plainly: Cell proliferation assay (CellTiter-Glo), cells with K-Ras G12S mutation. The conditions noted are these: Homo sapiens, read-out: Inhibition of A549 Cells (IC50). Type of experiment: cell-based. The method, then: A549 (ATCC CRL-185) and LS123 (ATCC CRL-255) cell lines comprise a G12S mutation and can be used to assess Ras cellular signaling in vitro, e.g., in response to treatment with a compound described herein. A549 culture medium is prepared with RPMI-1640 and 10% heat-inactivated FBS. LS123 culture medium is prepared with RPMI-1640 and 10% heat-inactivated FBS. A CellTiter-Glo (CTG) luminescent based assay (Promega) is used to assess growth of the cells, as a measurement of the ability of the compounds herein to inhibit Ras signaling in the cells. The cells (e.g., 800 per well) are seeded in their respective culture medium in standard tissue culture-treated 384-well format plates (Falcon #08-772-116) or ultra-low attachment surface 384-well format plates (S-Bio #MS-9384WZ). The day after plating, cells are treated with a dilution series (e.g., a 10 point 3-fold dilution series) of the compounds herein (e.g., approximately 40 μl final volume per well). Cell viability can be monitored (e.g., approximately 6 days later) according to the manufacturer's recommended instructions, where CellTiter-Glo reagent is added (e.g., approximately 10 μl), vigorously mixed, covered, and placed on a plate shaker (e.g., approximately for 20 min) to ensure sufficient cell lysis prior to assessment of luminescent signal. The IC50 values are determined using the four parameter fit. The resulting IC50 value is a measurement of the ability of the test compound to reduce cell growth of Ras-driven cells (e.g., tumor cell lines) in vitro and/or in vivo.

Where two headings read alike, the source gives them in different places.

Broadly, the IC50 is the concentration needed to halve the response being measured. For `CC(C)[C@H]1N(C(=O)n2cnc(C(F)F)n2)C[C@]12CC[C@H](C)N(c1nc(OC[C@@]34CCCN3C[C@H](F)C4)nc3c(F)c(-c4ccc(F)c5sc(N)c(C#N)c45)c(Cl)cc13)C2` (atropisomer, axis not shown; (aS)) [Compound 109, (R)-2-amino-4-(6-chloro-4-((1R,4R,7S)-2-(3-(difluoromethyl)-1H-1,2,4-triazole-1-carbonyl)-1-isopropyl-7-methyl-2,6-diazaspiro[3.5]nonan-6-yl)-8-fluoro-2-(((2R,7aS)-2-fluorotetrahydro-1H-pyrrolizin-7a(5H)-yl)methoxy)quinazolin-7-yl)-7-fluorobenzo[b]thiophene-3-carbonitrile], the IC50 (≤500 nM) was not above 500 nM.
Same read-out and setting: the value for `CN(C[C@@H]1CN(C(=O)n2cnc(C#N)n2)[C@@H]1C1CCC1)c1nc(OC[C@@]23CCCN2C[C@H](F)C3)nc2c(F)c(-c3ccc(F)c4sc(N)c(C#N)c34)c(Cl)cc12` (atropisomer, axis not shown; (aS)) [Compound 150, 1-((2R,3R)-3-(((7-((R)-2-amino-3-cyano-7-fluorobenzo[b]thiophen-4-yl)-6-chloro-8-fluoro-2-(((2R,7aS)-2-fluorotetrahydro-1H-pyrrolizin-7a (5H)-yl)methoxy)quinazolin-4-yl)(methyl)amino)methyl)-2-cyclobutylazetidine-1-carbonyl)-1H-1,2,4-triazole-3-carbonitrile] was not above 500 nM; that for `CC(C)[C@@H]1[C@H](CN(C)c2nc(OC[C@@]34CCCN3C[C@H](F)C4)nc3c(F)c(-c4ccc(F)c5sc(N)c(C#N)c45)c(Cl)cc23)CN1C(=O)n1cnc(C#N)n1` (atropisomer, axis not shown; (aS)) [Compound 162, 1-((2R,3R)-3-(((7-((R)-2-amino-3-cyano-7-fluorobenzo[b]thiophen-4-yl)-6-chloro-8-fluoro-2-(((2R,7aS)-2-fluorotetrahydro-1H-pyrrolizin-7a (5H)-yl)methoxy)quinazolin-4-yl)(methyl)amino)methyl)-2-isopropylazetidine-1-carbonyl)-1H-1,2,4-triazole-3-carbonitrile] was not above 500 nM.
On the same count and under the same terms, the value for `CCN(C(=O)n1cnc(Cl)n1)[C@@H]1CCN(c2nc(OC[C@@]34CCCN3C[C@H](F)C4)nc3c(F)c(-c4ccc(F)c5sc(N)c(C#N)c45)c(Cl)cc23)[C@@H]1C` (atropisomer, axis not shown; (aS)) [Compound 176, N-((2R,3R)-1-(7-((R)-2-amino-3-cyano-7-fluorobenzo[b]thiophen-4-yl)-6-chloro-8-fluoro-2-(((2R,7aS)-2-fluorotetrahydro-1H-pyrrolizin-7a (5H)-yl)methoxy)quinazolin-4-yl)-2-methylpyrrolidin-3-yl)-3-chloro-N-ethyl-1H-1,2,4-triazole-1-carboxamide] was not above 500 nM; that for `C[C@H]1CC[C@]2(CN(C(=O)n3cnc(C(F)F)n3)[C@@H]2C2(C)CC2)CN1c1nc(OC[C@@]23CCCN2C[C@H](F)C3)nc2c(F)c(-c3ccc(F)c4sc(N)c(C#N)c34)c(Cl)cc12` (atropisomer, axis not shown; (aS)) [Compound 178, (R)-2-amino-4-(6-chloro-4-((1R,4R,7S)-2-(3-(difluoromethyl)-1H-1,2,4-triazole-1-carbonyl)-7-methyl-1-(1-methylcyclopropyl)-2,6-diazaspiro[3.5]nonan-6-yl)-8-fluoro-2-(((2R,7aS)-2-fluorotetrahydro-1H-pyrrolizin-7a (5H)-yl)methoxy)quinazolin-7-yl)-7-fluorobenzo[b]thiophene-3-carbonitrile] was not above 500 nM; that for `CC1([C@H]2N(C(=O)n3cnc(F)n3)C[C@]23CCCCN(c2nc(OC[C@@]45CCCN4C[C@H](F)C5)nc4c(F)c(-c5ccc(F)c6sc(N)c(C#N)c56)c(Cl)cc24)C3)CC1` (atropisomer, axis not shown; (aS)) [Compound 193, (R)-2-amino-4-(6-chloro-8-fluoro-4-((1R,4R)-2-(3-fluoro-1H-1,2,4-triazole-1-carbonyl)-1-(1-methylcyclopropyl)-2,6-diazaspiro[3.6]decan-6-yl)-2-(((2R,7aS)-2-fluorotetrahydro-1H-pyrrolizin-7a (5H)-yl)methoxy)quinazolin-7-yl)-7-fluorobenzo[b]thiophene-3-carbonitrile] was not above 500 nM.
Still for that read-out and setting: the value for `C[C@H]1CC[C@]2(CN(C(=O)n3cnc(F)n3)[C@@H]2C2(C(F)F)CC2)CN1c1nc(OC[C@@]23CCCN2C[C@H](F)C3)nc2c(F)c(-c3ccc(F)c4sc(N)c(C#N)c34)c(Cl)cc12` (atropisomer, axis not shown; (aS)) [Compound 194, (R)-2-amino-4-(6-chloro-4-((1S,4R,7S)-1-(1-(difluoromethyl)cyclopropyl)-2-(3-fluoro-1H-1,2,4-triazole-1-carbonyl)-7-methyl-2,6-diazaspiro[3.5]nonan-6-yl)-8-fluoro-2-(((2R,7aS)-2-fluorotetrahydro-1H-pyrrolizin-7a(5H)-yl)methoxy)quinazolin-7-yl)-7-fluorobenzo[b]thiophene-3-carbonitrile] was not above 500 nM.
Take `CC1CC(N(C)C(=O)n2cnc(Cl)n2)CN1c1nc(OC[C@@]23CCCN2C[C@H](F)C3)nc2c(F)c(-c3ccc(F)c4sc(N)c(C#N)c34)c(Cl)cc12` (single isomer, unassigned) [Compound 105]: the IC50 (500 nM to 5 μM (mixed units)) is 500 to 5000 nM.
Consider `CC(C)C1N(C(=O)n2cnc(Cl)n2)CC12CC(CC#N)CN(c1nc(OC[C@@]34CCCN3C[C@H](F)C4)nc3c(F)c(-c4ccc(F)c5sc(N)c(C#N)c45)c(Cl)cc13)C2` (single isomer, unassigned) [Compound 117], for which, where the note is “≤500 nM”, the IC50 was not above 500 nM.
As to `CC1C2C(CCN2c2nc(OC[C@@]34CCCN3C[C@H](F)C4)nc3c(F)c(-c4ccc(F)c5sc(N)c(C#N)c45)c(Cl)cc23)CN1C(=O)n1cncn1` (single isomer, unassigned) [Compound 121], the IC50 (500 nM to 5 μM (mixed units)) was 500 to 5000 nM.
For `CCN(C(=O)n1cnc(Cl)n1)[C@@H]1CCN(c2nc(OC[C@@]34CCCN3C[C@H](F)C4)nc3c(F)c(-c4ccc(F)c5sc(N)c(C#N)c45)c(Cl)cc23)[C@@H]1C` (single isomer, unassigned) [Compound 171], the IC50 (≤500 nM) was not above 500 nM.
With `CN(CC1(C)CCN1C(=O)n1cnc(Cl)n1)c1nc(OC[C@@]23CCCN2C[C@H](F)C3)nc2c(F)c(-c3ccc(F)c4sc(N)c(C#N)c34)c(Cl)cc12` (single isomer, unassigned) [Compound 183], the IC50 (500 nM to 5 μM (mixed units)) is 500 to 5000 nM.
In the case of `CN(C(=O)n1cnc(Cl)n1)C1CCN(c2nc(OC[C@@]34CCCN3C[C@H](F)C4)nc3c(F)c(-c4ccc(F)c5sc(N)c(C#N)c45)c(Cl)cc23)C1(C)C` (single isomer, unassigned) [Compound 198], the IC50 (≤500 nM) was not above 500 nM.
Regarding `N#Cc1c(N)sc2c(F)ccc(-c3c(Cl)cc4c(N5CCC6(C5)CN(C(=O)n5cncn5)C6C5CC5)nc(OC[C@@]56CCCN5C[C@H](F)C6)nc4c3F)c12` (single isomer, unassigned) [Compound 203], the IC50 (≤500 nM) was not above 500 nM.
On the same count and under the same terms, the value for `CC(C)[C@H]1N(C(=O)n2cncn2)C[C@@]12CN(c1nc(OC[C@@]34CCCN3C[C@H](F)C4)nc3c(F)c(-c4ccc(F)c5sc(N)c(C#N)c45)c(Cl)cc13)CCO2` [Compound 104, 2-amino-4-(6-chloro-8-fluoro-2-(((2R,7aS)-2-fluorotetrahydro-1H-pyrrolizin-7a(5H)-yl)methoxy)-4-((1R,4S)-1-isopropyl-2-(1H-1,2,4-triazole-1-carbonyl)-5-oxa-2,8-diazaspiro[3.5]nonan-8-yl)quinazolin-7-yl)-7-fluorobenzo[b]thiophene-3-carbonitrile] was not above 500 nM.
Still for that read-out and setting: the value for `CN(C[C@@H]1CN(C(=O)n2cnc(F)n2)[C@@H]1C1(CC#N)CC1)c1nc(OC[C@@]23CCCN2C[C@H](F)C3)nc2c(F)c(-c3ccc(F)c4sc(N)c(C#N)c34)c(Cl)cc12` [Compound 108, 2-amino-4-(6-chloro-4-((((2S,3R)-2-(1-(cyanomethyl)cyclopropyl)-1-(3-fluoro-1H-1,2,4-triazole-1-carbonyl)azetidin-3-yl)methyl)(methyl)amino)-8-fluoro-2-(((2R,7aS)-2-fluorotetrahydro-1H-pyrrolizin-7a(5H)-yl)methoxy)quinazolin-7-yl)-7-fluorobenzo[b]thiophene-3-carbonitrile] was not above 500 nM; that for `C[C@@H]1[C@H](N(C)C(=O)n2cnc(F)n2)CCN1c1nc(OC[C@@]23CCCN2C[C@H](F)C3)nc2c(F)c(-c3ccc(F)c4sc(N)c(C#N)c34)c(Cl)cc12` [Compound 111, N-((2R,3R)-1-(7-(2-amino-3-cyano-7-fluorobenzo[b]thiophen-4-yl)-6-chloro-8-fluoro-2-(((2R,7aS)-2-fluorotetrahydro-1H-pyrrolizin-7a(5H)-yl)methoxy)quinazolin-4-yl)-2-methylpyrrolidin-3-yl)-3-fluoro-N-methyl-1H-1,2,4-triazole-1-carboxamide] was not above 500 nM.
